According to ChEMBL document CHEMBL3822457, “Synthesis and biological analysis of novel glycoside derivatives of l-AEP, as targeted antibacterial agents” (2016):
Calls of active or inactive are those of the source. The calls are words filed in the database; no cut-off is given here.

Columns and labels:
[1] = Antibacterial activity against Salmonella enterica serovar Virchow ATCC 5742 in presence of DM1 at pH 6.9; type: functional, Salmonella enterica subsp. enterica serovar Virchow
Klebsiella aerogenes [2] = experiment: Antibacterial activity against Enterobacter aerogenes ATCC 13048 in presence of NB2 medium at pH 7.2; type: functional
Pseudomonas aeruginosa [3] = experiment: Antibacterial activity against Pseudomonas aeruginosa ATCC 27853 in presence of DM1 at pH 7.2; type: functional
Serratia marcescens [4] = experiment: Antibacterial activity against Serratia marcescens ATCC 13880 in presence of DM1 at pH 6.9; type: functional; settings: subsp. marcescens ATCC 13880
Serratia marcescens [5] = experiment: Antibacterial activity against Serratia marcescens ATCC 13880 in presence of NB2 medium at pH 7.2; type: functional; settings: subsp. marcescens ATCC 13880
Salmonella typhimurium [6] = experiment: Antibacterial activity against Salmonella enterica serovar Typhimurium ATCC 14028 in presence of DM1 at pH 6.9; type: functional, Salmonella enterica subsp. enterica serovar Typhimurium
Klebsiella aerogenes [7] = experiment: Antibacterial activity against Enterobacter aerogenes ATCC 13048 in presence of DM1 and glucose at pH 7.2; type: functional
Proteus mirabilis [8] = experiment: Antibacterial activity against Proteus mirabilis ATCC 14253 in presence of DM1 and glucose at pH 7.2; type: functional
[9] = Antibacterial activity against Salmonella enterica serovar Virchow ATCC 5742 in presence of NB2 medium at pH 7.2; type: functional, Salmonella enterica subsp. enterica serovar Virchow
Proteus mirabilis [10] = experiment: Antibacterial activity against Proteus mirabilis ATCC 14253 in presence of NB2 medium at pH 7.2; type: functional
Cronobacter sakazakii [11] = experiment: Antibacterial activity against Cronobacter sakazakii ATCC 29544 in presence of DM1 and glucose at pH 7.2; type: functional
Salmonella typhimurium [12] = experiment: Antibacterial activity against Salmonella enterica serovar Typhimurium ATCC 14028 in presence of DM1 at pH 7.2; type: functional, Salmonella enterica subsp. enterica serovar Typhimurium
Salmonella typhimurium [13] = experiment: Antibacterial activity against Salmonella enterica serovar Typhimurium ATCC 14028 in presence of NB2 medium at pH 7.2; type: functional, Salmonella enterica subsp. enterica serovar Typhimurium
Klebsiella pneumoniae [14] = experiment: Antibacterial activity against Klebsiella pneumoniae ATCC 13882 in presence of NB2 medium at pH 7.2; type: functional
Klebsiella aerogenes [15] = experiment: Antibacterial activity against Enterobacter aerogenes ATCC 13048 in presence of DM1 at pH 7.2; type: functional
Klebsiella pneumoniae [16] = experiment: Antibacterial activity against Klebsiella pneumoniae ATCC 13882 in presence of DM1 at pH 6.9; type: functional
Proteus mirabilis [17] = experiment: Antibacterial activity against Proteus mirabilis ATCC 14253 in presence of DM1 at pH 7.2; type: functional
Salmonella typhimurium [18] = experiment: Antibacterial activity against Salmonella enterica serovar Typhimurium ATCC 14028 in presence of DM1 and glucose at pH 7.2; type: functional, Salmonella enterica subsp. enterica serovar Typhimurium
Serratia marcescens [19] = experiment: Antibacterial activity against Serratia marcescens ATCC 13880 in presence of DM1 and glucose at pH 7.2; type: functional; settings: subsp. marcescens ATCC 13880
Klebsiella aerogenes [20] = experiment: Antibacterial activity against Enterobacter aerogenes ATCC 13048 in presence of DM1 at pH 6.9; type: functional
Klebsiella pneumoniae [21] = experiment: Antibacterial activity against Klebsiella pneumoniae ATCC 13882 in presence of DM1 at pH 7.2; type: functional
Cronobacter sakazakii [22] = experiment: Antibacterial activity against Cronobacter sakazakii ATCC 29544 in presence of NB2 medium at pH 7.2; type: functional
Proteus mirabilis [23] = experiment: Antibacterial activity against Proteus mirabilis ATCC 14253 in presence of DM1 at pH 6.9; type: functional
Cronobacter sakazakii [24] = experiment: Antibacterial activity against Cronobacter sakazakii ATCC 29544 in presence of DM1 at pH 7.2; type: functional
Cronobacter sakazakii [25] = experiment: Antibacterial activity against Cronobacter sakazakii ATCC 29544 in presence of DM1 at pH 6.9; type: functional
Klebsiella pneumoniae [26] = experiment: Antibacterial activity against Klebsiella pneumoniae ATCC 13882 in presence of DM1 and glucose at pH 7.2; type: functional
Pseudomonas aeruginosa [27] = experiment: Antibacterial activity against Pseudomonas aeruginosa ATCC 27853 in presence of DM1 and glucose at pH 7.2; type: functional
Serratia marcescens [28] = experiment: Antibacterial activity against Serratia marcescens ATCC 13880 in presence of DM1 at pH 7.2; type: functional; settings: subsp. marcescens ATCC 13880
Pseudomonas aeruginosa [29] = experiment: Antibacterial activity against Pseudomonas aeruginosa ATCC 27853 in presence of NB2 medium at pH 7.2; type: functional
Pseudomonas aeruginosa [30] = experiment: Antibacterial activity against Pseudomonas aeruginosa ATCC 27853 in presence of DM1 at pH 6.9; type: functional
[31] = Antibacterial activity against Salmonella enterica serovar Virchow ATCC 5742 in presence of DM1 at pH 7.2; type: functional, Salmonella enterica subsp. enterica serovar Virchow
[32] = Antibacterial activity against Salmonella enterica serovar Virchow ATCC 5742 in presence of DM1 and glucose at pH 7.2; type: functional, Salmonella enterica subsp. enterica serovar Virchow
Klebsiella pneumoniae [33] = experiment: Antibacterial activity against Klebsiella pneumoniae ATCC 13882 at 2 mg/ml in presence of DM1 and IPTG at pH 7.2; type: functional, organism-based
Salmonella typhimurium [34] = experiment: Antibacterial activity against Salmonella enterica serovar Typhimurium ATCC 14028 at 2 mg/ml in presence of DM1 at pH 7.2 in absence of IPTG; type: functional, organism-based; settings: Salmonella enterica subsp. enterica serovar Typhimurium
Klebsiella aerogenes [35] = experiment: Antibacterial activity against Enterobacter aerogenes ATCC 13048 at 2 mg/ml in presence of DM1 and IPTG at pH 7.2; type: functional, organism-based
Salmonella typhimurium [36] = experiment: Antibacterial activity against Salmonella enterica serovar Typhimurium ATCC 14028 at 2 mg/ml in presence of DM1 and IPTG at pH 7.2; type: functional, organism-based; settings: Salmonella enterica subsp. enterica serovar Typhimurium
[37] = tested on: Salmonella enterica subsp. enterica serovar Virchow; experiment: Antibacterial activity against Salmonella enterica serovar Virchow ATCC 5742 at 2 mg/ml in presence of DM1 at pH 7.2 in absence of IPTG; type: functional
Klebsiella pneumoniae [38] = experiment: Antibacterial activity against Klebsiella pneumoniae ATCC 13882 at 2 mg/ml in presence of DM1 at pH 7.2 in absence of IPTG; type: functional, organism-based
Cronobacter sakazakii [39] = experiment: Antibacterial activity against Cronobacter sakazakii ATCC 29544 at 2 mg/ml in presence of DM1 and IPTG at pH 7.2; type: functional
Cronobacter sakazakii [40] = experiment: Antibacterial activity against Cronobacter sakazakii ATCC 29544 at 2 mg/ml in presence of DM1 at pH 7.2 in absence of IPTG; type: functional
Klebsiella aerogenes [41] = experiment: Antibacterial activity against Enterobacter aerogenes ATCC 13048 at 2 mg/ml in presence of DM1 at pH 7.2 in absence of IPTG; type: functional, organism-based
[42] = tested on: Salmonella enterica subsp. enterica serovar Virchow; experiment: Antibacterial activity against Salmonella enterica serovar Virchow ATCC 5742 at 2 mg/ml in presence of DM1 and IPTG at pH 7.2; type: functional

In the case of `C[C@H](NC(=O)O[C@@H]1O[C@H](CO)[C@@H](O)[C@H](O)[C@H]1O)P(=O)(O)O`, the MIC [1] is reported as over 1 µg/mL, the MIC (Klebsiella aerogenes [2]) is reported as over 1 µg/mL and the MIC (Pseudomonas aeruginosa [3]) is reported as under 0.75 µg/mL. It also gave an MIC (Serratia marcescens [4]) of under 0.75 µg/mL, an MIC (Serratia marcescens [5]) of over 1 µg/mL and an MIC (Salmonella typhimurium [6]) of over 1 µg/mL. It also gave an MIC (Klebsiella aerogenes [7]) of 1 µg/mL, an MIC (Proteus mirabilis [8]) of over 1 µg/mL and an MIC [9] of over 1 µg/mL. The MIC (Proteus mirabilis [10]) was over 1 µg/mL, the MIC (Cronobacter sakazakii [11]) was under 0.75 µg/mL and the MIC (Salmonella typhimurium [12]) was over 1 µg/mL. For the same compound, the MIC (Salmonella typhimurium [13]) was over 1 µg/mL, the MIC (Klebsiella pneumoniae [14]) was over 1 µg/mL and the MIC (Klebsiella aerogenes [15]) was over 1 µg/mL. The MIC (Klebsiella pneumoniae [16]) was over 1 µg/mL, the MIC (Proteus mirabilis [17]) was over 1 µg/mL and the MIC (Salmonella typhimurium [18]) was over 1 µg/mL. For the same compound, the MIC (Serratia marcescens [19]) was 1 µg/mL, the MIC (Klebsiella aerogenes [20]) was under 0.75 µg/mL and the MIC (Klebsiella pneumoniae [21]) was over 1 µg/mL. For the same compound, the MIC (Cronobacter sakazakii [22]) was 1 µg/mL, the MIC (Proteus mirabilis [23]) was over 1 µg/mL and the MIC (Cronobacter sakazakii [24]) was under 0.75 µg/mL. The MIC (Cronobacter sakazakii [25]) was under 0.75 µg/mL, the MIC (Klebsiella pneumoniae [26]) was 1 µg/mL and the MIC (Pseudomonas aeruginosa [27]) was 1 µg/mL. For the same compound, the MIC (Serratia marcescens [28]) was 1 µg/mL, the MIC (Pseudomonas aeruginosa [29]) was 1 µg/mL and the MIC (Pseudomonas aeruginosa [30]) was under 0.75 µg/mL. It also gave an MIC [31] of over 1 µg/mL and an MIC [32] of over 1 µg/mL.

With `C[C@H](NC(=O)O[C@@H]1O[C@H](CO)[C@H](O)[C@H](O)[C@H]1O)P(=O)(O)O` the Activity (Klebsiella pneumoniae [33]) was “Active”, the Activity (Salmonella typhimurium [34]) was “inactive” and the Activity (Klebsiella aerogenes [35]) was “inactive”. The Activity (Salmonella typhimurium [36]) was “inactive”, the Activity [37] was “inactive” and the Activity (Klebsiella pneumoniae [38]) was “inactive”. For the same compound, the Activity (Cronobacter sakazakii [39]) was “Active”, the Activity (Cronobacter sakazakii [40]) was “inactive” and the Activity (Klebsiella aerogenes [41]) was “inactive”. The Activity [42] was “inactive”.
